Measurements as given in patent US10106515B2, “1-(cyclopent-2-en-1-yl)-3-(2-hydroxy-3-(arylsulfonyl)phenyl)urea derivatives as CXCR2 inhibitors” (GLAXOSMITHKLINE INTELLECTUAL PROPERTY DEVELOPMENT LIMITED, priority 2014, dated 2018).
Where a name gives a salt, the structure may show the parent alone.

Target: T1, recombinant human CXCR2 (Homo sapiens, UniProt P25025)
T1 construct: TEV protease site; Gal4-VP16 transcription factor
T1 sequence (P25025 1-360): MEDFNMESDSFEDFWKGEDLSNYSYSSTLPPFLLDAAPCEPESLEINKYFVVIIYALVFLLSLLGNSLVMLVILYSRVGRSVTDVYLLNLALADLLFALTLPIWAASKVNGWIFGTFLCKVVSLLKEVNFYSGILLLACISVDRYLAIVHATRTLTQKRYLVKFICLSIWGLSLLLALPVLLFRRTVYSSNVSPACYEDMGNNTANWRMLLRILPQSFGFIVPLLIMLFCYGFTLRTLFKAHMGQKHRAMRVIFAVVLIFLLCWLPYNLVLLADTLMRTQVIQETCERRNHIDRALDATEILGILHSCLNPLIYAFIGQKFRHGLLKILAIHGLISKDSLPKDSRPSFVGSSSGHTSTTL
Assay: CXCR2 Tango assay
Assay type: cell-based
Conditions: mean pIC50 of multiple test results; stimulated with 80 nM hCXCL1; reporter gene blue/green emission ratio; read-out: pIC50 (CXCR2 Tango assay) (converted)
Method in brief: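 A stable cell line carries human CXCR2 fused to a TEV site and Gal4-VP16, with protease-tagged arrestin. Cells (~10,000/well) were stimulated overnight at 37 °C with 80 nM hCXCL1 and a 10-point compound dilution. CCF4-AM beta-lactamase FRET (460/530 nm ratio) was read, normalized to hCXCL1 and DMSO, and mean pIC50 reported.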

Row | IC50 | Compound
1 | ≤ 10 nM | CN(C)[C@H]1C[C@H](S(=O)(=O)c2c(Cl)ccc(NC(=O)NC3CCC=C3Cl)c2O)C1 (stereo partly drawn) [Compound 134, 1-(4-chloro-3-((trans-3-(dimethylamino)cyclobutyl)sulfonyl)-2-hydroxyphenyl)-3-(2-chlorocyclopent-2-en-1-yl)urea]
2 | ≤ 10 nM | CC1=CCCC1NC(=O)Nc1ccc(Cl)c(S(=O)(=O)N(C)C)c1O (centres unmarked) [Compound 137, 6-chloro-2-hydroxy-N,N-dimethyl-3-(3-(2-methylcyclopent-2-en-1-yl)ureido)benzene-sulfonamide]
3 | ≤ 10 nM | O=C(O)C(F)(F)F.[2H]C([2H])([2H])N1CCC(C)(S(=O)(=O)c2c(Cl)ccc(NC(=O)N[C@@H]3CCC=C3C)c2O)CC1 [Compound 139, (R)-1-(4-chloro-2-hydroxy-3-((4-methyl-1-(d3-methyl)piperidin-4-yl)sulfonyl)phenyl)-3-(2-methylcyclopent-2-en-1-yl)urea, trifluoroacetic acid salt]
4 | ≤ 10 nM | CC1=CCCC1NC(=O)Nc1ccc(Cl)c(S(=O)(=O)C2CC3(CCN(C)CC3)C2)c1O (centres unmarked) [Compound 140, 1-(4-chloro-2-hydroxy-3-((7-methyl-7-azaspiro[3.5]nonan-2-yl)sulfonyl)phenyl)-3-(2-methylcyclopent-2-en-1-yl)urea]
5 | ≤ 10 nM | CO[C@@H]1COCC[C@@H]1S(=O)(=O)c1c(Cl)ccc(NC(=O)N[C@@H]2CCC=C2C)c1O [Compound 145, 1-(4-chloro-2-hydroxy-3-(((3R,4S)-3-methoxytetrahydro-2H-pyran-4-yl)sulfonyl)phenyl)-3-((R)-2-methylcyclopent-2-en-1-yl)urea]
6 | ≤ 10 nM | CO[C@H]1C[C@@H](S(=O)(=O)c2c(Cl)ccc(NC(=O)NC3C=CCC3)c2O)C1 (stereo partly drawn) [Compound 147, 1-(4-chloro-2-hydroxy-3-((cis-3-methoxycyclobutyl)sulfonyl)phenyl)-3-(cyclopent-2-en-1-yl)urea]
7 | ≤ 10 nM | CO[C@H]1C[C@@H](S(=O)(=O)c2c(Cl)ccc(NC(=O)NC3CCC=C3C)c2O)C1 (stereo partly drawn) [Compound 148, 1-(4-chloro-2-hydroxy-3-((cis-3-methoxycyclobutyl)sulfonyl)phenyl)-3-(2-methylcyclopent-2-en-1-yl)urea]
8 | ≤ 10 nM | CO[C@H]1C[C@@H](S(=O)(=O)c2c(Cl)ccc(NC(=O)NC3CCC=C3Cl)c2O)C1 (stereo partly drawn) [Compound 149, 1-(4-chloro-2-hydroxy-3-((cis-3-methoxycyclobutyl)sulfonyl)phenyl)-3-(2-chlorocyclopent-2-en-1-yl)urea]
9 | ≤ 10 nM | COC[C@H]1C[C@H](S(=O)(=O)c2c(Cl)ccc(NC(=O)NC3CCC=C3C)c2O)C1 (stereo partly drawn) [Compound 153, 1-(4-chloro-2-hydroxy-3-((trans-3-(methoxymethyl)cyclobutyl)sulfonyl)phenyl)-3-(2-methylcyclopent-2-en-1-yl)urea]
10 | ≤ 10 nM | COC1CCN(S(=O)(=O)c2c(Cl)ccc(NC(=O)NC3CCC=C3C)c2O)CC1 (centres unmarked) [Compound 154, 1-(4-chloro-2-hydroxy-3-((4-methoxypiperidin-1-yl)sulfonyl)phenyl)-3-(2-methylcyclopent-2-en-1-yl)urea]
11 | ≤ 10 nM | COCC(C)(C)S(=O)(=O)c1c(Cl)ccc(NC(=O)NC2CCC=C2C)c1O (centres unmarked) [Compound 156, 1-(4-chloro-2-hydroxy-3-((1-methoxy-2-methylpropan-2-yl)sulfonyl)phenyl)-3-(2-methylcyclopent-2-en-1-yl)urea]
12 | ≤ 10 nM | COCC(C)(C)S(=O)(=O)c1c(Cl)ccc(NC(=O)NC2CCC=C2Cl)c1O (centres unmarked) [Compound 157, 1-(4-chloro-2-hydroxy-3-((1-methoxy-2-methylpropan-2-yl)sulfonyl)phenyl)-3-(2-chlorocyclopent-2-en-1-yl)urea]
13 | ≤ 10 nM | COCCN1CCN(S(=O)(=O)c2c(Cl)ccc(NC(=O)NC3CCC=C3C)c2O)CC1 (centres unmarked) [Compound 161, 1-(4-chloro-2-hydroxy-3-((4-(2-methoxyethyl)piperazin-1-yl)sulfonyl)phenyl)-3-(2-methylcyclopent-2-en-1-yl)urea]
14 | ≤ 1 nM | O=C(Nc1ccc(Cl)c(S(=O)(=O)[C@H]2C[C@@H](O)C2)c1O)N[C@@H]1CCC=C1Cl [Compound 162, 1-(4-chloro-2-hydroxy-3-((cis-3-hydroxycyclobutyl)sulfonyl)phenyl)-3-((R)-2-chlorocyclopent-2-en-1-yl)urea]
15 | ≤ 10 nM | O=C(Nc1ccc(Cl)c(S(=O)(=O)[C@H]2C[C@@H](O)C2)c1O)NC1C=CCC1 (stereo partly drawn) [Compound 164, 1-(4-chloro-2-hydroxy-3-((cis-3-hydroxycyclobutyl)sulfonyl)phenyl)-3-(cyclopent-2-en-1-yl)urea]
16 | ≤ 1 nM | O=C(Nc1ccc(Cl)c(S(=O)(=O)[C@H]2CCOC2)c1O)N[C@@H]1CCC=C1Cl [Compound 166, 1-(4-chloro-2-hydroxy-3-(((S)-tetrahydrofuran-3-yl)sulfonyl)phenyl)-3-((R)-2-chlorocyclopent-2-en-1-yl)urea]
17 | ≤ 1 nM | O=C(Nc1ccc(Cl)c(S(=O)(=O)C2(F)CCOC2)c1O)N[C@@H]1CCC=C1Cl (stereo partly drawn) [Compound 167, 1-(4-chloro-3-((3-fluorotetrahydro-furan-3-yl)sulfonyl)-2-hydroxyphenyl)-3-((R)-2-chlorocyclopent-2-en-1-yl)urea]
18 | ≤ 1 nM | O=C(Nc1ccc(Cl)c(S(=O)(=O)C2(F)CCOCC2)c1O)N[C@@H]1CCC=C1Cl [Compound 168, (R)-1-(4-chloro-3-((4-fluorotetrahydro-2H-pyran-4-yl)sulfonyl)-2-hydroxyphenyl)-3-(2-chlorocyclopent-2-en-1-yl)urea]
19 | ≤ 1 nM | O=C(O)C(F)(F)F.[2H]C1(S(=O)(=O)c2c(Cl)ccc(NC(=O)N[C@@H]3CCC=C3Cl)c2O)CCN(C2CCC2)CC1 [Compound 169, (R)-1-(4-chloro-3-((1-cyclobutylpiperidin-4-yl)sulfonyl)-2-hydroxyphenyl)-3-(2-chlorocyclopent-2-en-1-yl)urea-d1, trifluoroacetic acid salt]
20 | ≤ 10 nM | O=C(Nc1ccc(Cl)c(S(=O)(=O)[C@H]2C[C@H](N3CCCC3)C2)c1O)NC1C=CCC1 (stereo partly drawn) [Compound 174, 1-(4-chloro-2-hydroxy-3-((trans-3-(pyrrolidin-1-yl)cyclobutyl)sul-fonyl)phenyl)-3-(cyclopent-2-en-1-yl)urea]
21 | ≤ 10 nM | O=C(Nc1ccc(Cl)c(S(=O)(=O)[C@H]2CCOC2)c1O)NC1C=CCC1 (stereo partly drawn) [Compound 175, 1-(4-chloro-2-hydroxy-3-(((S)-tetrahydrofuran-3-yl)sulfonyl)phenyl)-3-(cyclopent-2-en-1-yl)urea]
22 | ≤ 10 nM | O=C(Nc1ccc(Cl)c(S(=O)(=O)C2CCOCC2)c1O)NC1C=CCC1 (centres unmarked) [Compound 176, 1-(4-chloro-2-hydroxy-3-((tetrahydro-2H-pyran-4-yl)sulfonyl)phenyl)-3-(cyclopent-2-en-1-yl)urea]
23 | ≤ 10 nM | O=C(Nc1ccc(Cl)c(S(=O)(=O)[C@H]2C[C@H](N3CCCC3)C2)c1O)NC1CCC=C1Cl (stereo partly drawn) [Compound 177, 1-(4-chloro-2-hydroxy-3-((trans-3-(pyrrolidin-1-yl)cyclobutyl)sul-fonyl)phenyl)-3-(2-chlorocyclopent-2-en-1-yl)urea, trifluoroacetic acid salt]
24 | ≤ 10 nM | O=C(Nc1ccc(Cl)c(S(=O)(=O)[C@H]2CC[C@H](N3CCC3)CC2)c1O)NC1CCC=C1Cl (stereo partly drawn) [Compound 178, 1-(3-((trans-4-(azetidin-1-yl)cyclohexyl)sul-fonyl)-4-chloro-2-hydroxyphenyl)-3-(2-chlorocyclopent-2-en-1-yl)urea, trifluoroacetic acid salt]
25 | ≤ 10 nM | O=C(Nc1ccc(Cl)c(S(=O)(=O)[C@H]2CCOC2)c1O)NC1CCC=C1Cl (stereo partly drawn) [Compound 179, 1-(4-chloro-2-hydroxy-3-(((S)-tetrahydrofuran-3-yl)sulfonyl)phenyl)-3-(2-chlorocyclopent-2-en-1-yl)urea]
26 | ≤ 10 nM | O=C(Nc1ccc(Cl)c(S(=O)(=O)C2CCOCC2)c1O)NC1CCC=C1Cl (centres unmarked) [Compound 180, 1-(4-chloro-2-hydroxy-3-((tetrahydro-2H-pyran-4-yl)sulfonyl)phenyl)-3-(2-chlorocyclopent-2-en-1-yl)urea]
27 | > 10000 nM | CC1(S(=O)(=O)c2c(Cl)ccc(NC(=O)N[C@@H]3CCC=C3Cl)c2O)COC1 [Compound 181, (R)-1-(4-chloro-2-hydroxy-3-((3-methyloxetan-3-yl)sulfonyl)phenyl)-3-(2-chlorocyclopent-2-en-1-yl)urea]
28 | ≤ 10 nM | [2H]C([2H])([2H])C1(S(=O)(=O)c2c(Cl)ccc(NC(=O)N[C@@H]3CCC=C3Cl)c2O)CCOC1 (stereo partly drawn) [Compound 183, 1-(4-chloro-2-hydroxy-3-((3-(d3-methyl)tetrahydro-furan-3-yl)sulfonyl)phenyl)-3-((R)-2-chlorocyclopent-2-en-1-yl)urea]
29 | ≤ 10 nM | CC1=CCC[C@H]1NC(=O)Nc1ccc(Cl)c(S(=O)(=O)[C@]2(C)CCOC2)c1O [Compound 196, 1-(4-chloro-2-hydroxy-3-(((R)-3-methyltetrahydrofuran-3-yl)sulfonyl)phenyl)-3-((R)-2-methylcyclopent-2-en-1-yl)urea]
